# Laboratory results from patent US8399452B2, “Dibenzo[b,f][1,4]oxazepin-11-yl-N-hydroxybenzamides as HDAC inhibitors” (Methylgene Inc., priority 2006, dated 2013).
# Biological target: histone deacetylase (HDAC Enzyme)
# Test: Inhibition of Histone Deacetylase Enzymatic Activity (Boc-Lys(Ac)-AMC, Fluor-de-Lys developer)
# Assay type: biochemical
# Details: Table 9; read-out: HDAC Inhibition (IC50 μM) HDAC Enzyme
# Method: The following protocol is used to assay the compounds of the invention.
# The mixture is pre-incubated for 5 minutes at room temperature. The reaction is started by bringing the temperature to 37° C. and adding 16 μl substrate. Total reaction volume is 50 μl.
# In the Tables 8, 9 and 10, A≦[…]<B≦0.1 μM; 0.1 μM<C≦1 μM; and 1 μM<D≦10 μM.
row,IC50,Compound
1,< 0.05 µM,"O=C(NO)c1cnc(N2C[C@@H]3C[C@H]2CN3c2ccc(C(F)(F)F)cc2)nc1 [N-hydroxy-2-((1S,4S)-5-(4-(trifluoromethyl)phenyl)-2,5-diazabicyclo[2.2.1]heptan-2-yl)pyrimidine-5-carboxamide]"
2,< 0.05 µM,"O=C(NO)c1cnc(N2C[C@@H]3C[C@H]2CN3c2cc(C(F)(F)F)ccn2)nc1 [N-hydroxy-2-((1S,4S)-5-(4-(trifluoromethyl)pyridin-2-yl)-2,5-diazabicyclo[2.2.1]heptan-2-yl)pyrimidine-5-carboxamide]"
3,< 0.05 µM,"O=C(NO)c1cnc(N2C[C@@H]3C[C@H]2CN3c2nccc(C(F)(F)F)n2)nc1 [N-hydroxy-2-((1S,4S)-5-(4-(trifluoromethyl)pyrimidin-2-yl)-2,5-diazabicyclo[2.2.1]heptan-2-yl)pyrimidine-5-carboxamide]"
4,< 0.05 µM,"O=C(NO)c1cnc(N2C[C@@H]3C[C@H]2CN3c2cncc(C(F)(F)F)c2)nc1 [N-hydroxy-2-((1S,4S)-5-(5-(trifluoromethyl)pyridin-3-yl)-2,5-diazabicyclo[2.2.1]heptan-2-yl)pyrimidine-5-carboxamide]"
5,< 0.05 µM,"O=C(NO)c1cnc(N2C[C@@H]3C[C@H]2CN3c2cccc(C(F)(F)F)n2)nc1 [N-hydroxy-2-((1S,4S)-5-(6-(trifluoromethyl)pyridin-2-yl)-2,5-diazabicyclo[2.2.1]heptan-2-yl)pyrimidine-5-carboxamide]"
6,0.05 to 0.1 µM,"O=C(NO)c1cnc(N2C[C@@H]3C[C@H]2CN3C(=O)N2CCCC2)nc1 [N-hydroxy-2-((1S,4S)-5-(pyrrolidine-1-carbonyl)-2,5-diazabicyclo[2.2.1]heptan-2-yl)pyrimidine-5-carboxamide]"
7,< 0.05 µM,"Cc1cccc(N2C[C@@H]3C[C@H]2CN3c2ncc(C(=O)NO)cn2)c1 [N-hydroxy-2-((1S,4S)-5-m-tolyl-2,5-diazabicyclo[2.2.1]heptan-2-yl)pyrimidine-5-carboxamide]"
8,0.05 to 0.1 µM,"Cc1ccccc1N1C[C@@H]2C[C@H]1CN2c1ncc(C(=O)NO)cn1 [N-hydroxy-2-((1S,4S)-5-o-tolyl-2,5-diazabicyclo[2.2.1]heptan-2-yl)pyrimidine-5-carboxamide]"
9,< 0.05 µM,"Cc1ccc(N2C[C@@H]3C[C@H]2CN3c2ncc(C(=O)NO)cn2)cc1 [N-hydroxy-2-((1S,4S)-5-p-tolyl-2,5-diazabicyclo[2.2.1]heptan-2-yl)pyrimidine-5-carboxamide]"
10,0.05 to 0.1 µM,"O=C(NO)c1cnc(N2C[C@@H]3C[C@H]2CN3c2ccccc2)nc1 [N-hydroxy-2-((1S,4S)-5-phenyl-2,5-diazabicyclo[2.2.1]heptan-2-yl)pyrimidine-5-carboxamide]"
11,0.1 to 1 µM,"COc1cccc(N2CC3CC2CN3c2ccc(C(=O)NO)cc2)c1 (centres unmarked) [N-hydroxy-4-(5-(3-methoxyphenyl)-2,5-diazabicyclo[2.2.1]heptan-2-yl)benzamide]"
12,0.1 to 1 µM,"Cc1cccc(N2CC3CC2CN3c2ccc(C(=O)NO)cc2)c1 (centres unmarked) [N-hydroxy-4-(5-m-tolyl-2,5-diazabicyclo[2.2.1]heptan-2-yl)benzamide]"
13,1 to 10 µM,"O=C(NO)c1ccc(N2C[C@H]3C[C@@H]2CN3c2cc(C(F)(F)F)ccn2)cc1 [N-hydroxy-4-((1R,4R)-5-(4-(trifluoromethyl)pyridin-2-yl)-2,5-diazabicyclo[2.2.1]heptan-2-yl)benzamide]"
14,0.1 to 1 µM,"Cc1cccc(N2C[C@H]3C[C@@H]2CN3c2ccc(C(=O)NO)cc2)c1 [N-hydroxy-4-((1R,4R)-5-m-tolyl-2,5-diazabicyclo[2.2.1]heptan-2-yl)benzamide]"
15,0.1 to 1 µM,"O=C(NO)c1ccc(N2C[C@@H]3C[C@H]2CN3c2cccc(C(F)(F)F)c2)cc1 [N-hydroxy-4-((1S,4S)-5-(3-(trifluoromethyl)phenyl)-2,5-diazabicyclo[2.2.1]heptan-2-yl)benzamide]"
16,0.1 to 1 µM,"O=C(NO)c1ccc(N2C[C@@H]3C[C@H]2CN3c2cc(C(F)(F)F)ccn2)cc1 [N-hydroxy-4-((1S,4S)-5-(4-(trifluoromethyl)pyridin-2-yl)-2,5-diazabicyclo[2.2.1]heptan-2-yl)benzamide]"
17,0.1 to 1 µM,"Cc1ccc(N2C[C@@H]3C[C@H]2CN3c2ccc(C(=O)NO)cc2)cc1 [N-hydroxy-4-((1S,4S)-5-p-tolyl-2,5-diazabicyclo[2.2.1]heptan-2-yl)benzamide]"
18,0.1 to 1 µM,"O=C(NO)c1cnc(N2C[C@@H]3C[C@H]2CN3c2cccc(C(F)(F)F)c2)cn1 [N-hydroxy-5-((1S,4S)-5-(3-(trifluoromethyl)phenyl)-2,5-diazabicyclo[2.2.1]heptan-2-yl)pyrazine-2-carboxamide]"
19,< 0.05 µM,"Cc1ccc(N2CC3CC2CN3c2ccc(C(=O)NO)cn2)cc1 (centres unmarked) [N-hydroxy-6-(5-p-tolyl-2,5-diazabicyclo[2.2.1]heptan-2-yl)nicotinamide]"
20,0.1 to 1 µM,"O=C(NO)c1ccc(N2C[C@@H]3C[C@H]2CN3c2cccc(C(F)(F)F)c2)nn1 [N-hydroxy-6-((1S,4S)-5-(3-(trifluoromethyl)phenyl)-2,5-diazabicyclo[2.2.1]heptan-2-yl)pyridazine-3-carboxamide]"

# Same assay, conditions: Table 10; read-out: HDAC Inhibition (IC50 μM) HDAC Enzyme
row,IC50,Compound
1,1 to 10 µM,"CN1CCc2[nH]c3ccc(C(=O)NO)cc3c2C1 [N-hydroxy-2-methyl-2,3,4,5-tetrahydro-1H-pyrido[4,3-b]indole-8-carboxamide]"
2,0.1 to 1 µM,"O=C(CCc1ccc(CN2C(=O)c3ccccc3Oc3ccccc32)cc1)NO [N-hydroxy-3-(4-((11-oxodibenzo[b,f][1,4]oxazepin-10(11H)-yl)methyl)phenyl)propanamide]"
3,< 0.05 µM,"O=C(NO)c1ccc(C#CCN2C(=O)c3ccccc3Oc3ccccc32)cc1 [N-hydroxy-4-(3-(11-oxodibenzo[b,f][1,4]oxazepin-10(11H)-yl)prop-1-ynyl)benzamide]"
4,0.05 to 0.1 µM,"O=C(NO)c1ccc(CCCN2C(=O)c3ccccc3Oc3ccccc32)cc1 [N-hydroxy-4-(3-(11-oxodibenzo[b,f][1,4]oxazepin-10(11H)-yl)propyl)benzamide]"
5,0.1 to 1 µM,"O=C(NO)c1ccc(N2C(=O)c3ccccc3Oc3ccccc32)cc1 [N-hydroxy-4-(11-oxodibenzo[b,f][1,4]oxazepin-10(11H)-yl)benzamide]"
6,0.1 to 1 µM,O=C(NO)c1ccc(Cn2c(-c3ccccc3)cc3ccccc32)cc1 [N-hydroxy-4-((2-phenyl-1H-indol-1-yl)methyl)benzamide]
7,0.1 to 1 µM,"O=C(NO)c1ccc(CN2C(=O)c3ccccc3CCc3ccccc32)cc1 [N-hydroxy-4-((6-oxo-11,12-dihydrodibenzo[b,f]azocin-5(6H)-yl)methyl)benzamide]"
8,< 0.05 µM,O=C(NO)c1ccc(Cn2c(=O)c3ccccc3c3ccccc32)cc1 [N-hydroxy-4-((6-oxophenanthridin-5(6H)-yl)methyl)benzamide]
9,< 0.05 µM,"O=C(NO)c1ccc(CN2C(=O)c3ccccc3Oc3ccccc32)cc1 [N-hydroxy-4-((11-oxodibenzo[b,f][1,4]oxazepin-10(11H)-yl)methyl)benzamide]"
10,< 0.05 µM,"O=C(CCCCCN1C(=O)c2ccccc2Oc2ccccc21)NO [N-hydroxy-6-(11-oxodibenzo[b,f][1,4]oxazepin-10(11H)-yl)hexanamide]"
11,< 0.05 µM,O=C(CCCCCCn1c(=O)c2ccccc2c2ccccc21)NO [N-hydroxy-7-(6-oxophenanthridin-5(6H)-yl)heptanamide]

# Same assay, conditions: read-out: HDAC Inhibtion (IC50 μM) HDAC Enzyme
row,IC50,Compound
1,0.1 to 1 µM,"CN1c2ccccc2Oc2ccccc2C1c1ccc(C(=O)NO)cc1 (centres unmarked) [N-hydroxy-4-(10-methyl-10,11-dihydrodibenzo[b,f][1,4]oxazepin-11-yl)benzamide]"
